Key:
Format in all cases: cell-based, human
GALC mRNA = test: qPCR of GALC transcripts in GM03813 fibroblasts; settings: for Selectivity GALC /FL-SMN2: EC50 of GALC divided by EC1.5× of FL-SMN2; for EC50: Homo sapiens, Fibroblast, GM03813 fibroblasts, 24 h, 50% total GALC mRNA reduction, 95% CI in brackets
Description: (§1) GM03813 fibroblasts, GM24468-derived MNs, NRK-49F, MDCK, CV-1, or NCMDF cells were plated at a density of 0.5 or 1.5 × 10^4, 4 × 10^4, 5 × 10^3, 5 × 10^3, 8 × 10^3, or 6 × 10^3 cells/well on 96-well plates, respectively. After approximately 6 h, the medium was added with the same volume of culture medium containing each compound at the concentration of 0.06, 0.2, 0.6, 0.2, and 6 µM. The final concentration of DMSO was adjusted to 0.1% in culture condition.
(§2) All cells were treated with above compounds for 24 h and washed once with Dulbecco’s Phosphate-Buffered Saline without Ca and Mg [D-PBS (–)] (Wako or Nakarai Tesque). In case of using GM03813 or GM24468-derived MNs, cell lysis and reverse transcription were carried out using SuperPrep Cell Lysis & RT Kit for qPCR in accordance with manufacturer’s recommendations (Toyobo, Japan). qPCR was performed using THUNDERBIRD Probe qPCR Mix (Toyobo). The final concentrations of primers and probes were adjusted to 0.4 µM and 0.15 µM, respectively (Supplementary Table 1). Cycle conditions were as follows; 95 °C for 1 min; followed by 40 cycles of denaturation at 95 °C for 15 s; annealing and elongation at 60 °C for 1 min in the ViiA7 RT-PCR system (Thermo Fisher Scientific). The copy numbers of each target were normalized to those of GAPDH.

FL-SMN2 mRNA = test: qPCR of FL-SMN2 transcripts in SMA type II fibroblasts (GM03813); settings: 24 h, 50% total FL-SMN2 mRNA increase, normalized to GAPDH, 95% CI in brackets
Description: as §1, §2

GALC = GALC enzymatic assay from Hs683 cells; settings: 3 days
Description: GALC enzymatic activities were quantified as reported by Wiederschain et al.[47]. Hs683 cells were seeded at 1.5 × 10^5 cells/well in 6-well plate. Cells were treated with TEC-1 (0.1, 0.3, or 1 µM) or SMN-C3 (0.03, 0.1, 0.3, or 1 µM) for 3 days. Hs683 cells were washed with D-PBS (–), collected with ultra-pure water using a cell scraper, and homogenized with homogenizers (NS-4, NS310E, Micotechnition, Japan) for 10 s. Cell lysates were centrifuged at 600 × g for 10 min at 4 °C, followed by collection of supernatants. The concentration of protein of each sample was quantified with a BCA kit. The samples were adjusted to 1 µg protein/µL (total volume 20 µL) with ultra-pure water and then 80 µL of reaction buffer (0.25% taurocholate, 0.05% oleic acid and 0.1 mol/L citrate, pH 4.4) containing 80 µM 6-Hexadecanoylamino-4-methylumbelliferone b-D-galactopyranoside (HMU-Gal, Carbosynth, UK) was added. Stop buffer (0.2 mol/L Glycine solution with NaOH, pH 10.6) was mixed with an equal amount of ethanol. The mixture was reacted at 37 °C for 20 h. […] Signals were detected by reading the fluorescence emission at 450 nm with plate reader (Enspire, PerkinElmer) excited by 385 nm. The fluorescence intensity was corrected by the value of standard substrate of 6-hexadecanoylamino-4-methylumbelliferone (Cat. No. EH10520, Carbosynth).

HTT mRNA = test: qPCR of HTT transcripts in GM03813 fibroblasts; settings: for Selectivity HTT /FL-SMN2: EC50 of HTT divided by EC1.5× of FL-SMN2; for EC50: Homo sapiens, Fibroblast, GM03813 fibroblasts, 24 h, 50% total HTT mRNA reduction, 95% CI in brackets
Description: as §1, §2
In order to elucidate splicing pattern of cryptic GALC and HTT transcripts, GM03813 cells were seeded at 5 or 15 × 10^3 cells/well in 96-well plates and incubated with TEC-1 or SMN-C3 (0.03, 0.1, 0.3, 0.1, 1 or 3 µM) for 6 h under final concentration of 200 µg/ml CHX. For FOXM1, GM03813 fibroblasts were plated at 1.5 × 10^4 cells/well in 96-well plate and incubated with TEC-1, SMN-C3 or risdiplam (0.03, 0.1, 0.3 and 1 µM) for 24 h.
GM03813 fibroblasts and GM24468-derived MNs were seeded at 1.5 × 10^4 and 4 × 10^4 cells/well in 96-well plates and were treated with TEC-1 or SMN-C3 for 72 h at the concentration of 0.01, 0.03, 0.1, 0.3, 1, or 3 µM. After 72 h exposure of compound, GM24468 derived MNs and GM03813 fibroblasts were washed once with D-PBS (-), lysed with RIPA buffer (Wako) containing cOmplete (Sigma-Aldrich) and PhosSTOP (Sigma-Aldrich). The lysates were spun at 15,000 rpm for 15 min at 4 °C, and the supernatants were collected. The protein concentration was quantified with BCA kit (Wako). The lysates, adjusted to have the same protein amount, were mixed with NuPAGE LDS sample buffer containing DTT and heated at 95 °C for 5 min. Except for HTT detection, each sample (2 µg total protein/lane) was loaded Perfect NT Gel 7.5–15% gel (DRC, Japan) and run at 150 V for 60–70 min with Tris/glycine/SDS running buffer (BIO-RAD, USA). The proteins were transferred from the gel to Immobilon-P PVDF Membrane (Millipore, USA) with a transfer solution comprising 10% methanol and 1 × Novex Tris-glycine transfer buffer at 25 V for 180–240 min using Criterion blotter (BIO-RAD). In the case of HTT detection, each sample (2 µg total protein/lane) was loaded to Perfect NT Gel 7.5–15% gel and run at 150 V for 60–70 min with NuPAGE Tris–Acetate SDS Running Buffer. The proteins were transferred with a transfer solution comprising 10% methanol and 1 × Novex Tris-glycine transfer buffer at 25 V for 960 min using Criterion blotter. The membranes were blocked with Pierce Protein free T20 blocking reagent for 1 h and subsequently incubated with primary antibodies diluted with Can Get Signal Solution 1 (Toyobo) at room temperature for 1 h. Anti-SMN monoclonal antibody (MoAb)[15] […]

FOXM1b = test: qPCR of FOXM1b/c variant in GM03813 fibroblasts; settings: for Selectivity FOXM1b /FL-SMN2: EC50 of FOXM1b divided by EC1.5× of FL-SMN2; for EC50: Homo sapiens, Fibroblast, GM03813 fibroblasts, 24 h, 50% total target mRNA reduction, 95% CI in brackets
Description: as §1, §2

SMILES: CCN1CCC(c2cc(C)c3nc(-c4cc5c(C)nc(C)cn5n4)cc(=O)n3c2)CC1 [SMN-C3, reference compound]
- Selectivity GALC /FL-SMN2 (GALC mRNA): 4
- EC50 (GALC mRNA): 0.459 µM
- EC1.5× FL-SMN2 (FL-SMN2 mRNA): 122.1 (74.5–221.7) nM
- GALC enzymatic activity compared to TEC-1 (GALC): strongly decreased the activity of GALC
- Selectivity HTT /FL-SMN2 (HTT mRNA): 4
- EC50 (HTT mRNA): 0.547 µM
- Selectivity FOXM1b /FL-SMN2 (FOXM1b): 8
- EC50 (FOXM1b): 0.945 µM

SMILES: Cc1cn2nc(-c3nc4ccc(N5CCN(C)CC5)cc4c(=O)[nH]3)cc2c(C)n1 [TEC-1, 2-(4,6-dimethylpyrazolo[1,5-a]pyrazin-2-yl)-6-(4-methylpiperazin-1-yl)quinazolin-4(3H)-one]
- Selectivity GALC /FL-SMN2 (GALC mRNA): > 61
- EC50 (GALC mRNA): > 3 µM
- EC1.5× FL-SMN2 (FL-SMN2 mRNA): 49.1 (22.7–109.4) nM
- GALC enzymatic activity (GALC; 3000 nM): slight decrease
- Selectivity HTT /FL-SMN2 (HTT mRNA): > 61
- inclusion of the HTT cryptic exon or reduction of HTT at the mRNA and full-length protein levels (HTT mRNA; GM03813 cells): did not substantially impact
- EC50 (HTT mRNA): > 3 µM
- Selectivity FOXM1b /FL-SMN2 (FOXM1b): > 61
- EC50 (FOXM1b): > 3 µM
